Test results from EP1310250A1, “Use of the compound 2-methoxyphenyl-1-methyl-5P-methylbenzoyl-pyrrol-2-acetamido acetate for the production of an antiinflammatory drug with prevention of gastric hypersecretion and renal impairment” (MEDOSAN Ricerca S.r.l., priority 1997, dated 1999).

Legend:
[1] = tested on: fertility, embriotoxicity and teratogenicity; assay: Fertility, embryotoxicity and teratogenicity studies, rat; format: in vivo
rheumatoid arthritis = assay: Clinical trials: antiphlogistic activity in rheumatoid arthritis; format: in vivo, man; set-up: key to Antiphlogistic activity evaluation: excellent ^++++; good ^+++; poor ^++
Text: Amtolmetin guacyl was compared with ibuprofen, indomethacin, piroxicam and tolmetin.

[2] = tested on: rat isolated stomach strips; assay: Gastric motility in isolated stomach strips, acetylcholine and serotonin as agonists; conditions: acetilcholine and serotonin as agonists (fig. 10, 11 and 12)
gastric lesions = assay: Clinics with before/after endoscopies; format: in vivo, man; conditions: especially when administered on an empty stomach
rat bone marrow = assay: Micronucleus test; format: in vivo
Adjuvant arthritis = assay: Adjuvant arthritis: joint inflammation and patellar bone erosion; format: in vivo, rats; conditions: patellar bone mass; MED 15 25, 50, 100mg/kg, piroxicam 3mg/kg
Description: The drugs were administered daily by oral gavage for 4 days (day 0-3); piroxicam and MED 15 were dissolved in 5% Gum arabic + 0.01% Tween 80, and administered in a volume of 0.5ml. Piroxicam was administered as 3mg/kg and MED 15 was administered as 25, 50 and 100mg/kg doses. Table 8 bis illustrating dosage regimes. L=left stifle joint, R=Right stifle joint.
Under halothane anaesthesia, rats received 200µg of heat-killed finely ground Mycobactyerium tubercolosis in 25µl (80mg/10ml sterile saline) injected intra-articulary into the left stifle joint. The contralateral joint received 25µl 0.9% sterile saline. Control animals received 25µl of 0.9% sterile saline in both knees. SGE 50µl microsyringes with a volume lock calibrated at 25µl were used with 30G stainless steel needles. Solutions were prepared sterile, and aseptic technique was used throughout, with sterilisation of syringes between groups.
The rats were killed by carbon dioxide suffocation. The body weight was noted and the skin overlying the stifle joints was divided and the joint diameters assessed in mm using Mitutoyo vernier callipers (530-312, 0.02mm).
The patellae were dissected, weighed (Sartorius, 0.01mg) and then immersed in 1ml digestion buffer (see below) to remove soft tissue.
Digestive buffer was prepared fresh to the following formula; disodium hydrogen orthophosphate 20mM, EDTA 1mM and diothiothreitol at 2mM. […]

basal acid secretion = assay: Basal acid secretion; conditions: amtolmetin guacyl per se
COX2 (cyclooxygenase 2) = molecular target: T1, COX2 (cyclooxygenase 2) (Rattus norvegicus, UniProt P35355); assay: Pharmacological studies in rats: COX2 inhibition; format: in vivo; conditions: studies conducted in rats
T1 construct: from tissue; host or cells: rat (in vivo pharmacological studies; tissue not given)
T1 sequence (P35355 18-604): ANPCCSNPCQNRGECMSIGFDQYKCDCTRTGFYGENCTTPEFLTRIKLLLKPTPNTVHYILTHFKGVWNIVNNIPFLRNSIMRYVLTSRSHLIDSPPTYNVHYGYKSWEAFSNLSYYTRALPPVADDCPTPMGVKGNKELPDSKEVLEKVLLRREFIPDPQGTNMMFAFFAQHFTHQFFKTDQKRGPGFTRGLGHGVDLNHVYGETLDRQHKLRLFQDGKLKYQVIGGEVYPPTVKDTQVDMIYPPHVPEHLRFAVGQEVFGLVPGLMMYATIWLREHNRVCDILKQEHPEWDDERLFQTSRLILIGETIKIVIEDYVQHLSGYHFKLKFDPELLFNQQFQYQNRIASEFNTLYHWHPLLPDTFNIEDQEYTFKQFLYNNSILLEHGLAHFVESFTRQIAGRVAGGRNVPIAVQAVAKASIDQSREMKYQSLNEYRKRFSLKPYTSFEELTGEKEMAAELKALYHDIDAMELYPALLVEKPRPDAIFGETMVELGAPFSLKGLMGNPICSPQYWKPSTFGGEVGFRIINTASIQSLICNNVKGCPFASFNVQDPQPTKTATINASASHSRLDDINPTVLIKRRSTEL

osteoarthritis = assay: Clinical trials: antiphlogistic activity in osteoarthritis; format: in vivo, man; set-up: key to Antiphlogistic activity evaluation: excellent ^++++; good ^+++; poor ^++
Text: In this degenerative disease amtolmetin guacyl was compared with diclofenac, diflunisal, flurbiprofen, ibuprofen, ketoprofen, naproxen and tolmetin.

[3] = tested on: guinea-pig isolated ileum; assay: Intestinal motility in isolated ileum, various agonists; conditions: all of the traditional agonists: histamine, acetylcholine, serotonin (fig. 7, 8 and 9)
Text: In parallel we also studied the possible effect on intestinal motility in the guinea-pig isolated ileum (b.r. No. 29) using various agonists (fig. 7, 8 and 9).

gastric mucosa = assay: Histological evaluation of the gastric mucosa by an independent laboratory; conditions: oral gavage: amtolmetin guacyl 50 mg/kg, diclofenac 7.5 mg/kg, tolmetin 66.6 mg/kg
Description: In order to obtain a histological evaluation of the results obtained in our laboratories, an independent laboratory was provided with identical samples of the material evaluated by us, under totally blind conditions.
Controls received the vehicle only, also by oral gavage. 4 h after the final administration the animals were killed by ether overdose and the stomachs removed, rinsed in saline and immersed in formalin 4%.

[4] = tested on: CGRP (calcitonin gene related peptide); assay: Peptone-stimulated gastric acid secretion after treatment with CGRP8-37; format: in vivo, rat; conditions: peptone-stimulated gastric acid secretion (fig. 14)
[5] = tested on: isolated, perfused, immature rat stomach; assay: Antisecretive activity in vitro, isolated perfused immature rat stomach; conditions: for Δacid: mean±S.E.
Text: Male Wistar rats, 250±10 g b.w. (Charles River, Calco, Como, Italy), quarantined for five days prior to the beginning of the trial and divided into groups of 3 animals per cage, were used for determination of gastric lesions and of ID50 determination. Immature male Wistar rats, 30-45 g b.w. (Harlan Nossan, Milano) were used for the determination of the antisecretory effect on isolated rat stomach. The guinea-pigs used were the Dunkin Hartley guinea-pigs (Harlan Nossan, Milano, Italy).
At the beginning, the isolated, perfused, immature rat stomach, treated externally with the study product, was used. We preferred to use the isolated stomach in toto rather than strips (B.R. No. 18, 19 and 20) in order not to exclude a section of the stomach (the antrum), unimportant for acid secretion but very important for the secretion of bicarbonates and bioactive peptides (b.r. No. 21, 22). The results were encouraging, since amtolmetin guacyl inhibited acid production stimulated by the three classic agonists (histamine, acetilcholine and gastrin) both using varying doses of agonist or varying doses of amtolmetin guacyl (Table 5).
The results are expressed as mean±S.E.

Carcinogenesis = Carcinogenesis studies, gavage over life-span; format: in vivo, rat; conditions: gavage for a period covering the animal's life-span
COX1 (cyclooxygenase 1) = molecular target: T2, COX1 (cyclooxygenase 1) (Rattus norvegicus, UniProt Q63921); assay: Pharmacological studies in rats: COX1 inhibition; format: in vivo; conditions: studies conducted in rats
T2 construct: from tissue; host or cells: rat (in vivo pharmacological studies; tissue not given)
T2 sequence (Q63921 27-602): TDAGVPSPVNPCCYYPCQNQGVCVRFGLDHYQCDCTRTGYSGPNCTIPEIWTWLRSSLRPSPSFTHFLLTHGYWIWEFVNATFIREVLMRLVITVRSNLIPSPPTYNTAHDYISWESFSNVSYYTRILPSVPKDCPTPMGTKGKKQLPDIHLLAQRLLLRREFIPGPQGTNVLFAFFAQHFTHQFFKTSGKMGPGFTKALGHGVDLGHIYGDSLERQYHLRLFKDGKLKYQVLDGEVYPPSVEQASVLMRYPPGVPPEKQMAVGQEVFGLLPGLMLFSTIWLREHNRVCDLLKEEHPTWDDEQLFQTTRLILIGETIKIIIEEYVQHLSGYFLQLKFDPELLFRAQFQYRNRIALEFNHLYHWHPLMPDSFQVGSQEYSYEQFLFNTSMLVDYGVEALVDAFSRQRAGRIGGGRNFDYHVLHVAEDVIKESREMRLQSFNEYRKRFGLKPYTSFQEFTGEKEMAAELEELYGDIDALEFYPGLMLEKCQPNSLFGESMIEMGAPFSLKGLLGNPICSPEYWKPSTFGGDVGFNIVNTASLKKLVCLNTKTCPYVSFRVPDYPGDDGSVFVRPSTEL

H2 receptors = molecular target: T3, H2 receptors (Cavia porcellus, UniProt P47747); assay: Effect on H2 receptors of isolated atrium, histamine stimulation; conditions: guinea-pig atrium, stimulation by histamine (fig. 5)
T3 construct: an organ in which only H2 receptors were present (guinea-pig atrium); from tissue; host or cells: guinea-pig atrium (isolated organ)
T3 sequence (P47747 whole entry): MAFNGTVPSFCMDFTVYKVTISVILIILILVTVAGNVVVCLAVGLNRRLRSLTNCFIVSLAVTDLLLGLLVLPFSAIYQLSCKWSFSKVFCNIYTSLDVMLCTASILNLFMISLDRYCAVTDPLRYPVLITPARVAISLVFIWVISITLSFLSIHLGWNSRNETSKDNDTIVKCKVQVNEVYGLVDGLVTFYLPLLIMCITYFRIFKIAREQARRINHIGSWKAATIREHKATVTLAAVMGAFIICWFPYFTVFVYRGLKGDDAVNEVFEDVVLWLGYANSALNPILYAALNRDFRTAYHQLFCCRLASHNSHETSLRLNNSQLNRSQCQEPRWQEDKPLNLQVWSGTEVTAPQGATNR
Text: On the basis of the above series of observations, we decided to study the pharmacological behaviour of a number of widely used NSAIDs (including amtolmetin guacyl) towards the gastric mucosa in the rat, as previously described. […] The first hypothesis was that we were deling with an anti-H2 drug, given the fact that its potency could be compared with that of cimetidine.

[6] = in vivo
[7] = agonist Acetylcholine 10^-3 M, antagonist 10^-4 M
[8] = agonist Gastrin 6x10^-7 M, antagonist 10^-4 M
[9] = agonist Histamine 10^-3 M, antagonist 10^-4 M
[10] = agonist Histamine 10^-4 M, antagonist 10^-4 M
[11] = agonist Histamine 10^-4 M, antagonist 10^-5 M

## COc1ccccc1OC(=O)CNC(=O)Cc1ccc(C(=O)c2ccc(C)cc2)n1C [amtolmetin guacyl, 2-methoxyphenyl-1-methyl-5p-methylbenzoylpyrrol-2-acetamido acetate]
[1]
  fertility, embriotoxicity and teratogenicity: demonstrated the safety product
Rheumatoid arthritis; 150 patients, 30 days, versus Ibuprofen, Indomethacin, Piroxicam, Tolmetin
  Evaluation of antiphlogistic activity: Amtolmetin guacyl demonstrated statistical significant activity more rapid and more marked when compared to the reference NSAIDs in rheumatoid arthritis.
Rheumatoid arthritis; Rheumatoid arthritis
  Antiphlogistic activity evaluation: ^++++
[2]
  gastric motility: clear evidence of down-regulation of motility
Gastric lesions
  induction of gastric lesions: not to induce gastric lesions
Rat bone marrow
  micronucleus test: absence of amtolmetin guacyl-related damage
Adjuvant arthritis
  protection against bone loss: dose dependent protective effect
Basal acid secretion
  effect on basal acid secretion: fails to modify basal acid secretion
COX2 (cyclooxygenase 2)
  inhibition of COX2: inhibition
osteoarthritis; 550 patients, mean 80 days, versus Diclofenac, Diflunisal, Flurbiprofen, Ibuprofen, Ketoprofen, Naproxen, Tolmetin
  Evaluation of antiphlogistic activity: Amtolmetin guacyl was more rapid and more active in a statistically significant manner in osteoarthritis compared to the reference NSAIDs.
osteoarthritis; Osteoarthritis
  Antiphlogistic activity evaluation: ^++++
[3]
  intestinal motility: decrease in motility
Gastric mucosa
  Histology: no histological lesions
Gastric mucosa; single animals
  Macroscopic findings: 0
  Microscopic findings: 0
[4]
  effect of the CGRP antagonist CGRP8-37 on the activity on gastric secretion: blockage of the amtolmetin guacyl - related activity on gastric secretion
[5]; [7]
  % inhib.: 21.5%
  Δacid: 71.2 ± 5.4 nmol/min
[5]; [8]
  % inhib.: 52.1%
  Δacid: 30.7 ± 3.7 nmol/min
[5]; [9]
  % inhib.: 57.7%
  Δacid: 17.9 ± 2.1 nmol/min
[5]; [10]
  % inhib.: 62.6%
  Δacid: 19.2 ± 5.4 nmol/min
[5]; [11]
  % inhib.: 68.7%
  Δacid: 16.1 ± 5.4 nmol/min
Carcinogenesis
  Carcinogenesis: innocuity of the product
COX1 (cyclooxygenase 1)
  inhibition of COX1: inhibition
H2 receptors
  interference with the H2 receptors: did not interfere with the H2 receptors
[6]
  drug tolerability: excellent drug tolerability
